ChEMBL document CHEMBL1144819, “Antitumor agents. 261. 20(S)-protopanaxadiol and 20(s)-protopanaxatriol as antiangiogenic agents and total assignment of (1)H NMR spectra” (J Nat Prod, 2008)
Values after ≈ are worked out from the molar mass of the structure shown.

How the values were obtained:
HUVEC [1] = assay: Antiproliferative activity against HUVEC cells after 72 hrs; assay type: functional, cell-based; details: Homo sapiens
HUVEC [2] = assay: Cell viability of HUVEC cells at 20 ug/ml; assay type: functional, Homo sapiens

Compound	EC50 (HUVEC [1]) [µg/mL]	Activity (HUVEC [2]) [%]
CC(C)=CCC[C@](C)(O)[C@H]1CC[C@]2(C)[C@@H]1[C@H](O)C[C@@H]1[C@@]3(C)CC[C@H](O)C(C)(C)[C@@H]3[C@@H](O)C[C@]12C	6.64 (≈ 13.9 µM)	16.5
CC(C)=CCC[C@](C)(O)[C@H]1CC[C@]2(C)[C@@H]1[C@H](O)C[C@@H]1[C@@]3(C)CC[C@H](O)C(C)(C)[C@@H]3CC[C@]12C	2.16 (≈ 4.69 µM)	16.5
